According to patent EP4772508A1, “MACROCYCLIC COMPOUND AND USE THEREOF” (Jiangsu Hengrui Pharmaceuticals Co., Ltd., priority 2023, dated 2025):
Where two headings read alike, the source gives them in different places. Marks after values point to notes of the source that are not given here.

Tests used:
[1] = Relaxivity of the compound in water; format: physicochemical; conditions: deionized water
Method: Test example 1: Relaxivity of the compound in water
Niumag (Suzhou) Nuclear Magnetic Resonance Contrast Agent Relaxivity Analyser with a 0.5 T magnetic field
Bruker Small Animal Magnetic Resonance Imaging System (BioSpec 70/20 USR) with a 7 T magnetic field
1 mL of the test sample was placed in a 1.5 mL EP (eppendorf) tube, and the longitudinal relaxation time T1 and transverse relaxation time T2 under different magnetic field conditions were measured separately using the Niumag (Suzhou) Nuclear Magnetic Resonance Contrast Agent Relaxivity Analyser with a 0.5 T magnetic field. The test sample was loaded into a 0.2 mL sample tube until full, and the longitudinal relaxation time T1 and transverse relaxation time T2 under different magnetic field conditions were measured separately using the Bruker Small Animal Magnetic Resonance Imaging System (BioSpec 70/20 USR) with a 7 T magnetic field.
(§1) Based on the relaxation times T1 and T2 of samples at different concentrations, the relaxivities r1 and r2 were calculated respectively. The relaxivity was calculated according to the following equation: r = (1)/(ΔT)/C, [formula] r: relaxivity; T: relaxation time (s); C: contrast agent concentration (mM).

[2] = Relaxivity of compounds in human plasma; format: physicochemical; conditions: human plasma containing sodium heparin, 0.5 T
Method: as §1

[3] = Metal transfer stability test in the presence of zinc ions; format: physicochemical; conditions: equal volumes 2.5 mM contrast agent and 2.5 mM ZnCl2, phosphate buffer, 37°C, 0.5 T
Method: Test example 4: Metal transfer stability test of compounds in the presence of zinc ions • 1 . Experimental protocol • 2. […] Experiment instruments: VTMR20-010V-I Nuclear Magnetic Resonance Cross-Linking Density Imaging Analyser • 4. Experimental method
A 2.5 mM solution of contrast agent solutions and a 2.5 mM solution of zinc chloride were respectively prepared in phosphate buffer (0.026 mol/L KH2PO4 and 0.041 mol/L Na2HPO4). An equal volume of a 2.5 mM ZnCl2 solution was added to the a 2.5 mM gadolinium contrast agent solution, and the mixture was mixed by shaking. This moment of complete mixing was designated as time zero (t = 0). Immediately thereafter, a 0.5 mL aliquot was withdrawn and subjected to measurement of the longitudinal relaxation time, T1(0), at 37°C and a magnetic field strength of 0.5 T. The mixed solution was then incubated at 37°C. 0.5 mL of the solution was taken at time points of 5 min, 180 min, 1440 min and 5760 min, respectively, to determine T1(t) at different time points. The ratio of the relaxivity at different time points to the initial relaxivity at time 0, namely R1(t)/R1(0), was calculated.

[4] = test system: canine plasma proteins; conditions: dog, 1000 µM
Method: After the preparation of plasma samples, 0.5 mL of plasma samples were transferred into ultracentrifugation tubes, with 3 replicates per concentration. After incubation in a CO2 incubator at 37°C for 0.5 h, the samples were subjected to ultracentrifugation at 627,000 g for 3 hours at 37°C. After centrifugation, 100 µL of samples were taken from the central layer of the ultracentrifugation tubes and mixed with 100 µL of blank plasma. The samples were stored at -70°C for subsequent determination.
The plasma protein binding rates of analytes at different concentration levels were calculated using the following formulas: [formula] Binding rate% = 100%−Free rate%. [formula]

[5] = hydrochloric acid pH 1.2, 37°C, 8 × 10^-6 M, 0 h
[6] = hydrochloric acid, 24 h, 8 µM, pH 1.2
[7] = hydrochloric acid, 48 h, 8 µM, pH 1.2
[8] = hydrochloric acid, 96 h, 8 µM, pH 1.2

Substance | Relaxivity r1 ([1]; 0.5 T) | Relaxivity r1 ([1]; 7 T) | Relaxivity r1 [2] | R1(t)/R1(0) ([3]; 0 min) | R1(t)/R1(0) ([3]; 5 min) | R1(t)/R1(0) ([3]; 180 min) | R1(t)/R1(0) ([3]; 1440 min) | R1(t)/R1(0) ([3]; 5760 min) | Gd^3+ Dissociation rate (%) [5] | Gd^3+ Dissociation rate (%) [6] | Gd^3+ Dissociation rate (%) [7] | Gd^3+ Dissociation rate (%) [8] | Average% (binding rate) [4]
Gadobutrol | 4.4 mM⁻¹ s⁻¹ | 3.5 mM⁻¹ s⁻¹ | 7.5 mM⁻¹ s⁻¹ | 1 | 0.93 | 0.82 | 0.96 | 0.90 | BLQ | 73.5% | 70.1% | 64.6% | –
Gadodiamide | – | – | – | 1 | 1.07 | 0.59 | 0.59 | 0.38 | – | – | – | – | –
Gadopiclenol [RC1] | 11.7 mM⁻¹ s⁻¹ | 6.3 mM⁻¹ s⁻¹ | – | – | – | – | – | – | BLQ | 24.7% | 35.6% | 37.8% | 0* %
